Results reported in patent US12036228B2, “Treatment of seizure disorders” (Shackelford Pharma Inc., priority 2022, dated 2024).

Columns and labels:
Type in all cases: in vivo
[1] = test system: GTC seizures in human patient; experiment: Example 4 human patient, idiopathic GTC seizures
Source text: A person's first evaluation for cannabinboid therapy was on Feb. 16, 2010. […] Initially in 2010, the patient was smoking cannabis in the day and taking a THC cannabis extract at night orally.

[2] = test system: seizures in human patient; experiment: Example 3 human patient, GTC and complex partial seizures
Source text: A patient first started having GTC and complex partial (CP) seizures. […] The patient was referred for evaluation for initiation of cannabinoid/THC treatment in March 2014.

[3] = test system: seizures in human patient; experiment: Example 8 pediatric patient with Lennox-Gastaut; conditions: THC 8 mg BID (16 mg TDD) orally in combination with Epidiolex (CBD) 150 mg BID
Method: The other pediatric patient was a patient, diagnosed with Lennox-Gastout in 2008, suffered from multiple seizure types and went through corpus callosotomy in January 2017 after failure of vagus nerve stimulation (VNS). […] The patient was first evaluated for cannabinoid treatment on Aug. 3, 2017, and was prescribed CBD with 0.3% THC 10 mg BID (Charlotte's Web). […] After discharge from the hospital, the patient's GTCs worsened and were no longer responsive to felbamate. […] This patient was 35.45 kg, so the CBD daily dose was 3.3 mg/kg (well below the therapeutic dosages for Epidiolex). However patient was still having frequent tonic, myoclonic, and GTC seizures per day. […] When the dose was 300 mg Epidiolex daily, the patient was 40.5 kg, so the CBD daily dose was 7.4 mg/kg (below the therapeutic dosages for Epidiolex for Lennox Gastaut Syndrome).

[4] = test system: GTC seizures in human patient; experiment: Example 2 human patient, Dravet syndrome
Method: A patient first started having seizures and was subsequently diagnosed with Dravet syndrome. Initially, they were having clusters of 2 GTC seizures a day for 2 days occurring about every 2 weeks. Keppra was ineffective as were other combinations of anti-epileptic drugs. Several different combinations were tried and by the time they were first seen for evaluation for cannabinoid treatment on Aug. 7, 2014, they were taking Depakote 125 mg BID, Clonazepam 0.5 mg TID, and Versed/Diastat as needed for rescue but was still having clusters of GTC seizures every 2 weeks. The patient had started a CBD product on Jul. 3, 2014 (product analysis: 11.2 mg CBD/gm with 0.38 mg THC/gm at a dose of 0.7 mL TID (unknown concentration per mL), but seizures still were occurring irregularly—primarily GTC occurring in clusters of 1-2 per day every two weeks, rare atonic, and occasional eye-flutters.

[5] = test system: seizures / EEG abnormalities in human patient; experiment: Example 8 pediatric patient with atonic seizures, myoclonic seizures and Doose syndrome (24 hour EEG, seizures)
Method: They had continued to experience several seizures per day of all types despite multiple combination regimens of prescription anti-seizure medications and a trial of THC-A transdermal patch and CBD (Charlotte's Web) oral tincture and CBD transdermal patches up until the day they were first evaluated for cannabinoid treatment (age 4.5 on Mar. 8, 2016). […] They were then prescribed 1 mg oral THC tincture three times per day. On Mar. 8, 2018, the patient returned for follow-up where it was learned that all cannabinoids had been discontinued. […] The THC-A transdermal patch was restarted at 1.875 mg/day with a reduction in EEG abnormalities to 400/24 hours. Oral THC 2.5 mg BID was then restarted with a further reduction in EEG abnormalities to 20/24 hours. […] Due to the significant reduction in brain pre-seizure activity after restarting THC and concerns that there are effective dosage variations among transdermal products, the patient was then prescribed oral THC 2.5 mg BID which they continue to take.

[6] = test system: GTC seizures in human patient; experiment: Example 7 human patient, intractable GTC seizures; conditions: 10 mg THC with 10 mg CBD orally daily at bedtime, with Trileptal and clonazepam
Source text: A patient was first diagnosed with intractable GTC seizures without status epilepticus in 2001.
The patient first presented for cannabinoid treatment on May 24, 2013. They were then a PhD student in economics. The patient's medical history is significant for having a car accident with a concussion and “scarring”. They developed GTC seizures occurring 3 times per month. […] In 2008, they started using recreational cannabis occasionally, but not regularly.

[7] = test system: GTC seizures in human patient; experiment: Example 5 human patient, GTC seizures caused by cerebral angioma
Source text: A patient first started having GTC seizures in 2007 which were caused by a cerebral angioma. […] The freedom from seizures allowed them to stop taking Lamictal, and the resolution of the medication side effects allowed them to return to work.

[8] = smoking cannabis during the day and 12.5 mg of THC orally at bedtime

CCCCCc1cc(O)c2c(c1)OC(C)(C)[C@@H]1CCC(C)=C[C@@H]21 [THC, Delta-9-tetrahydrocannabinol]
seizures after resuming regimen ([1]; cannabis smoking during the day and THC cannabis extract orally at night): the seizures stopped
seizure control ([1]; inhaled and orally administered THC cannabis products, no anti-epileptic drugs): well controlled
seizure status [1, 8]: had no seizures
seizure-free period [1, 8]: 4 years
seizure status ([2]; 20 milligrams THC cannabis extract liquid orally in the morning and 5 mg THC content pill in the evening): remained seizure free
seizure status ([2]; inhaled 16 mg cannabis wax in the morning and oral 20 milligrams THC cannabis extract liquid at night): seizure free
effect on seizures [3]: further reduction in seizure frequency and duration
cognitive function ([4]; 20 mg CBD+20 mg THC TID regimen): significantly better
seizure-free duration ([4]; Depakote+Onfi+stiripentol+5 mg THC HS): 15 months
seizures after THC added back ([4]; THC 5 mg HS, CBD removed): improvement in the number and severity of all seizure types
behavioral effect when used as rescue medication ([4]; THC applied to the oral mucosa): no behavioral compromise
termination of seizures as rescue medication ([4]; THC applied to the oral mucosa, 6 non-convulsive seizures): rapidly terminated
seizures when THC was dropped from the regimen ([4]; patient not receiving THC, Apr. 25 to Dec. 3, 2017): frequency and severity of all seizure types increased
effect as rescue medication ([4]; two drops THC to gums): rapid effect
EEG abnormalities ([5]; Oral THC 2.5 mg BID restarted after THC-A patch): 20 /24 hours
observable seizures ([5]; Oral THC 2.5 mg BID with THC-A patch): no observable seizures
seizures [6]: no seizures since restarting cannabinoids
seizure status ([7]; only orally administered THC-infused confections and drinks): still seizure-free
seizure status ([7]; orally administered THC reduced from 150 milligrams to 70 mg at bedtime): continued seizure freedom
